Earlier results, collected in article PMC7464078, “CYP3A Excipient-Based Microemulsion Prolongs the Effect of Magnolol on Ischemia Stroke Rats” (Pharmaceutics, 2020).
Like-named read-outs stand apart in the source and are kept apart here.

Experiments:
[1] = design: method as in PMID 21638244
CYP3A = system: CYP3A; design: method as in PMID 14716751, PMID 11137342; details: hepatocytes and liver microsomes

Compound: C=CCc1ccc(O)c(-c2ccc(O)c(CC=C)c2)c1 [honokiol]
- Inhibition of rat CYP1A2 (rat CYP1A2): relatively strong inhibitors
- Inhibition of rat CYP2E1 (rat CYP2E1): relatively strong inhibitors
- Inhibition of rat CYP3A (rat CYP3A): weak inhibitors
- Inhibition of human CYP3A4 (human CYP3A4): weak inhibitors

Compound: C=CCc1ccc(O)c(-c2cc(CC=C)ccc2O)c1 [Magnolol, 5,5′-diallyi-2,2′-dihydroxybiphenyl]
- Water solubility (at 25 °C): 1.24 mg/L
- Solubility in dimethyl sulfoxide (ref Item No. 14233, Cyman Chemical): approximately 16 mg/mL
- Bioavailability [1]: 4%
- Inhibition of rat CYP1A2 (rat CYP1A2; in vitro): relatively strong inhibitors
- Inhibition of rat CYP2E1 (rat CYP2E1; in vitro): relatively strong inhibitors
- Inhibition of rat CYP3A (rat CYP3A; in vitro): weak inhibitors
- Inhibition of human CYP3A4 (human CYP3A4; in vitro): weak inhibitors

Compound: Tween-80
- Effect on CYP3A activity (CYP3A): inhibited
